Test results taken from US7893263B2, “Structural analogs of corosolic acid having anti-diabetic and anti-inflammatory properties” (Laila Nutraceuticals, priority 2004, dated 2011).

Tests used:
Albino wistar rats = assay: Hypoglycemic activity: inhibition of sucrose-induced raise in serum glucose levels (SGL); type: in vivo; set-up: Inhibitory rate (serum glucose level inhibitory rate): unit not given here; conditions: oral dose 1 mg/Kg; for SGL (mean ± SE): 20 mL/kg of 20% sucrose orally after 30 minutes, blood drawn one hour after treatment, groups of six rats; for Inhibitory rate (serum glucose level inhibitory rate): mean increase in serum glucose levels of treated vs control groups
Procedure: Hypoglycemic activity: Hypoglycemic activity was tested by the inhibition of sucrose-induced raise in serum glucose levels (SGL), by the test substances in Albino wistar rats. The procedure involves fasting the rats for overnight at ad libitum water, numbered weighed and randomly divided into groups of six animals each. Prior to treatment blood samples were drawn from sinus orbital plexus of all animals using heparin coated glass capillaries under mild ether anesthesia. The blood samples were tested for serum glucose levels using enzymatic GOD/POD method. […] SGL=(test OD/Standard OD)×100 and the results were expressed in mg/dL. All the groups were treated orally with corresponding test substances, standard, vehicle (5% gum acacia). After 30 minutes, all animals were given 20 mL/kg of 20% sucrose solution orally using gastric tube. One hour after treatment, blood samples were drawn again under mild ether anesthesia and tested for serum glucose levels in a same procedure as described above for initial serum glucose estimation. The data was subjected to statistical treatment using t-test and inhibitory rate was calculated by comparing mean increase in serum glucose levels of control and treated groups. The corosolic acid analogs of this invention are found to show better hypoglycemic activity (Table 1; hypoglycemic activity is expressed in serum glucose level inhibitory rate values; higher the inhibitory rate value, higher is the activity) than the corosolic acid.

5-Lipoxygenase = 5-Lipoxygenase inhibitory activity, colorimetric method (ferric xylenol orange, linoleic acid); type: biochemical
Procedure: 5-Lipoxygenase activity: The corosolic acid analogs were screened for their 5-Lipoxygenase inhibitory potential using colorimetric method. The assay mixture contained 50 mM phosphate buffer pH 6.3, 5-Lipoxygenase, various concentrations of test substances in dimethyl sulphoxide and linoleic acid in a total volume of 0.5 mL, after 5 min incubation of above reaction mixture, 0.5 mL ferric xylenol orange reagent was added and OD was measured after two minutes at 585 nm using spectrophotometer. Controls were run along with test in a similar manner except using vehicle instead of test substance solution. Percent inhibition was calculated by comparing absorbance of test solution with that of control.
The corosolic acid analogs of this invention are found to show good 5-lipoxygenase activity (Table 2; 5-lipoxygenase activity is expressed in % of inhibition at 100 μM and 250 μM; higher the % inhibitory values, higher is the activity).

[1] = system: Brine shrimp (Artemia salina) nauplii; assay: in vivo; conditions: 24 h at 37° C., 10 nauplii per vial
Procedure: Brine shrimp lethality: Brine shrimp (Artemia salina) nauplii were hatched using brine shrimp eggs in a conical shaped vessel (1 L), filled with sterile artificial sea water (prepared using sea salt 38 g/L and adjusted to pH 8.5 using 1 N NaOH) under constant aeration for 48 h. After hatching, 10 nauplii were drawn through a pepette and placed in each vial containing 4.5 mL brine solution and added various concentrations of drug solutions and volume was made upto 5 mL using brine solution and maintained at 37° C. for 24 h under the light of incandescent lamps and surviving larvae were counted. Each experiment was conducted along with control (vehicle treated), at various concentrations of the test substance in each set that contains 6 tubes and the average results are reported. The percentage lethality was determined by comparing the mean mortal larvae of test and control tubes. LC50 values were obtained from the plot of concentration (μg) vs. percentage lethality. Podophyllotoxin was used as a positive control.
The corosolic acid analogs of this invention are found to show significant brine shrimp lethality (Table 3; brine shrimp lethality is expressed in LC50 at μM concentration; lower the LC50 value, higher is the activity).

Molecule	SGL (mean ± SE) (Albino wistar rats) [mg/dL]	Inhibitory rate (serum glucose level inhibitory rate) (Albino wistar rats)	% inhibition of 5-Lox activity (5-Lipoxygenase; 250 μM) [%]	LC50 [1] [µM]	% inhibition of 5-Lox activity (5-Lipoxygenase; 100 μM) [%]
C[C@H]1[C@H](C)CC[C@]2(C(=O)O)CC[C@]3(C)C(=CC(=O)[C@@H]4[C@@]5(C)C[C@H]6OS(=O)(=O)O[C@@H]6C(C)(C)[C@@H]5CC[C@]43C)[C@H]12 [Compound 19, 2α,3β-Dihydroxyurs-12-en-11-one-28-oic acid 2,3-cyclicsulphate]	129.16 ± 4.66	11.67	11.81	> 100	
C[C@H]1[C@H](C)CC[C@]2(C(N)=O)CC[C@]3(C)C(=CC[C@@H]4[C@@]5(C)C[C@@H](O)[C@H](O)C(C)(C)[C@@H]5CC[C@]43C)[C@H]12 [Compound 8, Corosolamide]	110.14 ± 3.18	18.15	51.29	29	26.13
C[C@H]1[C@H](C)CC[C@]2(C(N)=O)CC[C@]3(C)C(=CC(=O)[C@@H]4[C@@]5(C)C[C@@H](O)[C@H](O)C(C)(C)[C@@H]5CC[C@]43C)[C@H]12 [Compound 20, 11-Ketocorosolamide]	142.81 ± 7.30	12.33	42.79	> 100	18.57
CC(=O)OC1CC2(C)C(CCC3(C)C2C(=O)C=C2C4C(C)C(C)CCC4(C(=O)O)CCC23C)C(C)(C)C1OC(C)=O (stereo not drawn) [Compound 18, Diacetyl-11-ketocorosolic acid]				87.7	
CC(=O)O[C@@H]1C[C@]2(C)[C@H]3CC=C4[C@@H]5[C@@H](C)[C@H](C)CC[C@]5(C(=O)O)CC[C@@]4(C)[C@]3(C)CC[C@H]2C(C)(C)[C@H]1OC(C)=O [Compound 2, 2,3-Di-O-acetylcorosolic acid]			44.54	1.8	20.08
COC(=O)C12CCC(C)C(C)C1C1=CCC3C4(C)CC(OC(=O)C=Cc5cc(OC)c(OC)c(OC)c5)C(O)C(C)(C)C4CCC3(C)C1(C)CC2 (stereo not drawn) [Compound 6, Methyl 2-O-(3,4,5-trimethoxycinnamoyl)corosolate]	114.15 ± 6.62	21.94	13.47	> 200	
COc1cc(C(=O)OC(=O)C23CCC(C)C(C)C2C2=CCC4C5(C)CC(O)C(O)C(C)(C)C5CCC4(C)C2(C)CC3)cc(OC)c1OC (stereo not drawn) [Compound 25, Corosolyl tri-O-methylgallate]	131.84 ± 7.77	9.84	38.83	> 200	
CC1CCC2(C(=O)O)CCC3(C)C(=CCC4C5(C)CC(OC(=O)c6cccnc6)C(O)C(C)(C)C5CCC43C)C2C1C (stereo not drawn) [Compound 3, 2-O-Nicotinoylcorosolic acid]	115.86 ± 3.77	13.9	53.19	86.6	28.54
CC1CCC2(C(=O)NCCN)CCC3(C)C(=CCC4C5(C)CC(O)C(O)C(C)(C)C5CCC43C)C2C1C (stereo not drawn) [Compound 10, N-(2-Aminoethyl)corosolamide]	113.57 ± 3.80	30.28	40.87	97.2	21.74
2-O-Acetylcorosolic acid and 3-O-acetylcorosolic acid [Compound 1]	109.54 ± 2.80	32.75	24.05	9.7	15.47
CC(N)C(=O)OC1CC2(C)C(CCC3(C)C2CC=C2C4C(C)C(C)CCC4(C(=O)O)CCC23C)C(C)(C)C1O.Cl (stereo not drawn) [Compound 5, 2-O-Alanylcorosolic acid hydrochloride]	113.49 ± 4.11	22.39	67.03	3.4	29.14
COC(=O)[C@]12CC[C@@H](C)[C@H](C)[C@H]1C1=CC(=O)[C@@H]3[C@@]4(C)C[C@@H](O)[C@H](O)C(C)(C)[C@@H]4CC[C@@]3(C)[C@]1(C)CC2 [Compound 15, Methyl 11-ketocorosolate]	120.79 ± 4.85	17.4	25.09	40.9	
Corosolinol [Compound 23]	113.06 ± 2.61	30.59	19.63	30.7	2.91
CC1CCC2(C(=O)O)CCC3(C)C(=CCC4C5(C)CC6OS(=O)(=O)OC6C(C)(C)C5CCC43C)C2C1C (stereo not drawn) [Compound 7, 2α,3β-Dihydroxyurs-12-en-28-oic acid 2,3-cyclicsulphate]			16.90	15	
CC1CCC2(C(=O)NCCO)CCC3(C)C(=CCC4C5(C)CC(O)C(O)C(C)(C)C5CCC43C)C2C1C (stereo not drawn) [Compound 12, N-(2-Hydroxyethyl)corosolamide]	103.49 ± 7.12	36.47	32.96	> 100	17.74
Methyl diacetyl-11-ketocorosolate [Compound 16]			3.82	82.3	
C[C@H]1[C@H](C)CC[C@]2(C(=O)O)CC[C@]3(C)C(=CC(=O)[C@@H]4[C@@]5(C)C[C@@H](O)[C@H](O)C(C)(C)[C@@H]5CC[C@]43C)[C@H]12 [Compound 17, 11-Ketocorosolic acid]	120.90 ± 9.66	25.78			
COC(=O)C12CCC(C)C(C)C1C1=CC(O)C3C4(C)CC(O)C(O)C(C)(C)C4CCC3(C)C1(C)CC2 (stereo not drawn) [Compound 22, Methyl 11-hydroxycorosolate]			49.40	19.9	24.56
Methyl diacetylcorosolate [Compound 14]			1.9	42.1	
3-O-acetyl-11-keto-β-boswellic acid [AKBA, reference compound]			25.3		17.45
CC(Cc1ccc(O)c(O)c1)C(C)Cc1ccc(O)c(O)c1 (stereo not drawn) [NDGA, Nordihydroguaiaretic acid, reference compound]			91.55		70.4
